Measured values: US11311542B2, “Inhibitors of cyclin dependent kinase 7 (CDK7)” (Syros Pharmaceuticals, Inc., priority 2018, dated 2022)

Legend:
HCC70 cells = experiment: Inhibition of cell proliferation (CyQUANT Direct), HCC70; format: cell-based, human; settings: Homo sapiens, HCC70, 72-hour
Method: (§1) HCC70 and MB453 cells are cell lines derived from human triple negative breast cancer COV318 and COV504 cells are cell lines derived from human ovarian cancer. Representative compounds of the invention were tested at different concentrations (from 4 μM to 126.4 pM; 0.5 log serial dilutions) for their ability to inhibit the proliferation of each of these cell lines. Known CDK inhibitors dinaciclib or N-((1S,3R)-3-((5-chloro-4-(1H-indol-3-yl) pyrimidin-2-yl)amino)cyclohexyl)-5-((E)-4-(dimethylamino)but-2-enamido)picolinamide and triptolide were used as positive controls. Cells were seeded at approximately 2,000 cells/well and grown in ATCC-formulated RPMI-1640 Medium (ATCC 30-2001)+10% FBS. The cells were cultured at 37° C. in a humidified chamber in the presence of 5% CO2. Proliferation assays were conducted over a 72-hour time period. CyQUANT® Direct Cell Proliferation Assay (Life Technologies, Chicago, Ill. USA) was used to assess the anti-proliferative effects of the compounds following manufacturer's directions and utilizing the reagents supplied with the CyQUANT® Direct Cell kit.

COV318 cells = experiment: Inhibition of cell proliferation (CyQUANT Direct), COV318; format: cell-based, human; settings: Homo sapiens, COV318, 72-hour
Method: as §1

COV504 cells = experiment: Inhibition of cell proliferation (CyQUANT Direct), COV504; format: cell-based, human; settings: Homo sapiens, COV504, 72-hour
Method: as §1

MB453 cells = experiment: Inhibition of cell proliferation (CyQUANT Direct), MB453; format: cell-based, human; settings: Homo sapiens, MB453, 72-hour
Method: as §1

CDK2/Cyclin E1 complex = CDK2/Cyclin E1 complex (Homo sapiens, UniProt P24941); experiment: CDK2 kinase inhibition assay (Caliper/LabChip EZ Reader)
Method: (§2) Compounds described herein were assayed for inhibition of CDK7, CDK9, CDK12, and CDK2 activity at Biortus Biosciences (Jiangyin, Jiangsu Province, P.R. of China) using kinase assays for each CDK developed with a Caliper/LabChip EZ Reader (Perkin Elmer, Waltham, Mass.).
(§3) Furthermore, the CDK9 inhibition assay used CDK9/Cyclin T1 complex (8 nM) and “5-FAM-CDK9tide” peptide substrate (2 μM, synthesized fluorophore-labeled peptide with the following sequence: 5-FAM-GSRTPMY-NH2 (SEQ ID NO:2) where 5-FAM is defined above and NH2 signifies a C-terminal amide) with 10 mM MgCl2 in the buffer composition listed above. The CDK12 inhibition assay used CDK12 (aa686-1082)/Cyclin K complex (50 nM) and “5-FAM-CDK9tide” (2 μM) as defined above, with 2 mM MgCl2 in the buffer composition above. Additionally, the CDK2 inhibition assay used CDK2/Cyclin E1 complex (0.5 nM) and “5-FAM-CDK7tide” (2 μM; defined above) with 2 mM MgCl2 in the buffer composition above.
(§4) The incubation period at 27° C. for each CDK inhibition assay was chosen such that the fraction of phosphorylated peptide product produced in each assay, relative to the total peptide concentration, was approximately 20% (±5%) for the uninhibited kinase (35 min. for CDK7, 35 min. for CDK2, 3 hr. for CDK12, 15 min. for CDK9).

[1] = target: CDK7/Cyclin H/MAT1 complex (Homo sapiens, UniProt P50613); experiment: CDK7 kinase inhibition assay (Caliper/LabChip EZ Reader)
Sequence of CDK7/Cyclin H/MAT1 complex (P50613 whole entry): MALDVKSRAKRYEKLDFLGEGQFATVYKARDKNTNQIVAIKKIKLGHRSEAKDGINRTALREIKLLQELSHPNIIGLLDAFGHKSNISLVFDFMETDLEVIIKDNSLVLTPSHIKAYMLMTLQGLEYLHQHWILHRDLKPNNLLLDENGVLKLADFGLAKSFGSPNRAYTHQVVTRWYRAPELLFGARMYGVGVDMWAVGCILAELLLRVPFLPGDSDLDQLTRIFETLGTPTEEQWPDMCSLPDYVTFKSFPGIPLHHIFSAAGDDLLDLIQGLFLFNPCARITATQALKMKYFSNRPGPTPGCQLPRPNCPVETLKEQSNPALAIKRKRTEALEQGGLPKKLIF
Sequence of CDK7/Cyclin H/MAT1 complex (P51946 whole entry partner): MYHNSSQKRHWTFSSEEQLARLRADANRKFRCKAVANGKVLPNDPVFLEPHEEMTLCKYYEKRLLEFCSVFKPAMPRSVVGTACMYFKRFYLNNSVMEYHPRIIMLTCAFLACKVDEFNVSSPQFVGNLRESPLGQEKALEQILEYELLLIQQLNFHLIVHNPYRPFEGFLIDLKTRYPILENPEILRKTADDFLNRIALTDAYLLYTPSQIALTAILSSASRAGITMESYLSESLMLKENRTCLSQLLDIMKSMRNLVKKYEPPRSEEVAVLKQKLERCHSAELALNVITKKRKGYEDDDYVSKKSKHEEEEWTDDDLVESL
Sequence of CDK7/Cyclin H/MAT1 complex (P51948 whole entry partner): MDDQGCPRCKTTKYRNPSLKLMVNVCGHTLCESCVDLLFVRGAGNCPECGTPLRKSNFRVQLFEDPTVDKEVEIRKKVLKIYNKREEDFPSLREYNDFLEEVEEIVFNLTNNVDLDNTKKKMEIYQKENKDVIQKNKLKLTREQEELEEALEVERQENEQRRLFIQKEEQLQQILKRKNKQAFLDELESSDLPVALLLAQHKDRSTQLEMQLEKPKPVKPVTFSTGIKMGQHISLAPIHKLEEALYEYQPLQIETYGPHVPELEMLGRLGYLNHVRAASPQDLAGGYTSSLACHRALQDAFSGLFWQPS
Method: as §2, §3, §4

CDK9/Cyclin T1 complex = CDK9/Cyclin T1 complex (Homo sapiens, UniProt P50750); experiment: CDK9 kinase inhibition assay (Caliper/LabChip EZ Reader)
Sequence of CDK9/Cyclin T1 complex (P50750 whole entry, the tested form may be a part): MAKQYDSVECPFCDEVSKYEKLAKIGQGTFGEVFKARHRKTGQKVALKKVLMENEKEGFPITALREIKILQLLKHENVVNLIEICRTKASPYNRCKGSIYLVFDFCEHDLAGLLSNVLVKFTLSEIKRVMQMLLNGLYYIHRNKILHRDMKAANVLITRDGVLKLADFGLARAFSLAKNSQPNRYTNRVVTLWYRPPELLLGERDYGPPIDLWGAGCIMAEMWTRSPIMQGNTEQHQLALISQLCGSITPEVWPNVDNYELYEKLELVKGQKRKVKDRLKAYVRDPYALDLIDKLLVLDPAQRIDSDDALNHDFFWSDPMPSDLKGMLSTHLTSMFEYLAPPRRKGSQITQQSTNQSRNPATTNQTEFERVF
Sequence of CDK9/Cyclin T1 complex (O60563 whole entry partner, the tested form may be a part): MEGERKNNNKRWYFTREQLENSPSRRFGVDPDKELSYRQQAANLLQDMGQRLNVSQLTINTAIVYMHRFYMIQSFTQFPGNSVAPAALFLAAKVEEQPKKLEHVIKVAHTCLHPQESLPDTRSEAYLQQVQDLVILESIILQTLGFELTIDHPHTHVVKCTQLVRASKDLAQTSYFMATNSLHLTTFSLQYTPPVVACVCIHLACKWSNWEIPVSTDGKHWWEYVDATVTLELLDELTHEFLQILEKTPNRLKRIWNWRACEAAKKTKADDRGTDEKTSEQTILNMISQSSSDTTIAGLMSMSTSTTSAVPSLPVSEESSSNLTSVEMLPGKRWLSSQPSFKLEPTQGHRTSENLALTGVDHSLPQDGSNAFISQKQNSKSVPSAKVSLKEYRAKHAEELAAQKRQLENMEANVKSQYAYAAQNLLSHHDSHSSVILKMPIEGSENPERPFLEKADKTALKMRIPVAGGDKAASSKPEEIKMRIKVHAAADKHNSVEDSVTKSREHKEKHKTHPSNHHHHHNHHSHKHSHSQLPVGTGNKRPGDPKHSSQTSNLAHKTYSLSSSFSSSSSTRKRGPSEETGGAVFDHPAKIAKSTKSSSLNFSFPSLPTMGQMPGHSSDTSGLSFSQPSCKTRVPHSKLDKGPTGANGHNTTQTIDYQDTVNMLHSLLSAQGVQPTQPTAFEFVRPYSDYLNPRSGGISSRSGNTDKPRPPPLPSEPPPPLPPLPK

[2] = target: CDK12 (aa686-1082)/Cyclin K complex (Homo sapiens, UniProt Q9NYV4); experiment: CDK12 kinase inhibition assay (Caliper/LabChip EZ Reader)
Sequence of CDK12 (aa686-1082)/Cyclin K complex (Q9NYV4 686-1082): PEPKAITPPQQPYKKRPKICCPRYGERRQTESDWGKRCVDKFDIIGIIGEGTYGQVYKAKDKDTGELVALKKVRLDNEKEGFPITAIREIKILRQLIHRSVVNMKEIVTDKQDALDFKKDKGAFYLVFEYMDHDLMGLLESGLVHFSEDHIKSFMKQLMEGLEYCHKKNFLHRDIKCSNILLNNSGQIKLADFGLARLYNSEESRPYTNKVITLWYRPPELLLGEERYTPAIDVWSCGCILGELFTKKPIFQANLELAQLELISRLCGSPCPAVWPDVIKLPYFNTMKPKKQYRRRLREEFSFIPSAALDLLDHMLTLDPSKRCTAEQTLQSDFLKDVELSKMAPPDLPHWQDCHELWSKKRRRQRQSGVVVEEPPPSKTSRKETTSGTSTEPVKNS
Sequence of CDK12 (aa686-1082)/Cyclin K complex (O75909 whole entry partner, the tested form may be a part): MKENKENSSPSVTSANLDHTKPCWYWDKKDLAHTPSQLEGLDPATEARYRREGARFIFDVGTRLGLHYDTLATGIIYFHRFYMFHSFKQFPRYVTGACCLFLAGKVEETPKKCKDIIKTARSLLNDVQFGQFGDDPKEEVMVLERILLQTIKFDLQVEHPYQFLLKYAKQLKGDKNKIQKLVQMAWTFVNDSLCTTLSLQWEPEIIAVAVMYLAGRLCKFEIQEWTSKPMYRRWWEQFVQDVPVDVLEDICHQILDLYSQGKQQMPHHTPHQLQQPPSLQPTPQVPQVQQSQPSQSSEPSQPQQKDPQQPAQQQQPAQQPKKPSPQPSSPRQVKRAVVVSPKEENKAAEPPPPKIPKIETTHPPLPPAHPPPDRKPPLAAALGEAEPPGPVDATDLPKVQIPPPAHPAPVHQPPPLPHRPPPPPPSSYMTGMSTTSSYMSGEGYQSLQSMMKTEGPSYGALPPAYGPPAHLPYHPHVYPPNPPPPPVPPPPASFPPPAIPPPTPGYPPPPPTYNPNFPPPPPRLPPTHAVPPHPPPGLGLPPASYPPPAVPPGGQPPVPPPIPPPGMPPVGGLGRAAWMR

Row | SMILES | IC50 (HCC70 cells) [nM] | IC50 (COV318 cells) [nM] | IC50 (COV504 cells) [nM] | IC50 (MB453 cells) [nM] | IC50 (CDK2/Cyclin E1 complex) [nM] | IC50 [1] [nM] | IC50 (CDK9/Cyclin T1 complex) [nM] | IC50 [2] [nM]
1 | Cn1nncc1-c1ccc2c(-c3nc(N[C@H]4CCCNC4)ncc3C(F)(F)F)c[nH]c2c1 [Compound 126] | < 100 | 100 to 500 | < 100 | < 100 | > 500 | < 30 | > 500 | > 500
2 | Cc1nscc1-c1ccc2c(-c3nc(N[C@H]4CCCNC4)ncc3C(F)(F)F)c[nH]c2c1 [Compound 128] | < 100 | 100 to 500 | < 100 | < 100 | > 500 | < 30 | > 500 | > 500
3 | Cc1nc(-c2ccc3c(-c4nc(N[C@H]5CCCNC5)ncc4C(F)(F)F)c[nH]c3c2)no1 [Compound 129, 4-[6-(5-methyl-1,2,4-oxadiazol-3-yl)-1H-indol-3-yl]-N-[(3S)-3-piperidyl]-5-(trifluoromethyl)pyrimidin-2-amine] | < 100 | < 100 | < 100 | < 100 | > 500 | < 30 | > 500 | > 500
4 | Cc1nsc(-c2ccc3c(-c4nc(N[C@H]5CCCNC5)ncc4C(F)(F)F)c[nH]c3c2)n1 [Compound 130] | 100 to 500 | 100 to 500 | 100 to 500 | 100 to 500 | > 500 | < 30 | > 500 | > 500
5 | CO[C@H]1CNC[C@@H](Nc2ncc(C(F)(F)F)c(-c3c[nH]c4cc(-c5c(C)noc5C)ccc34)n2)C1 [Compound 131] | 100 to 500 | 100 to 500 | < 100 | < 100 | > 500 | < 30 | > 500 | > 500
6 | Cc1nocc1-c1ccc2c(-c3nc(N[C@H]4CCCNC4)ncc3C(F)(F)F)c[nH]c2n1 [Compound 132] | < 100 | < 100 | < 100 | < 100 | > 500 | < 30 | > 500 | > 500
7 | Cc1noc(C)c1-c1ccc2c(-c3nc(N[C@@H]4CNC[C@H](O)C4)ncc3C(F)(F)F)c[nH]c2n1 [Compound 133, (3R,5S)-5-[[4-[6-(3,5-dimethylisoxazol-4-yl)-1H-pyrrolo[2,3-b]pyridin-3-yl]-5-(trifluoromethyl)pyrimidin-2-yl]amino]piperidin-3-ol] | < 100 | 100 to 500 | < 100 | < 100 | > 500 | < 30 | > 500 | > 500
8 | Cc1noc(C)c1-c1cc2[nH]cc(-c3nc(N[C@H]4CCCNC4)ncc3C(F)(F)F)c2cc1F [Compound 134, 4-(6-(3,5-dimethylisoxazol-4-yl)-5-fluoro-1H-indol-3-yl)-N—((S)-piperidin-3-yl)-5-(trifluoromethyl)pyrimidin-2-amine] | < 100 | < 100 | < 100 | < 100 | > 500 | < 30 | > 500 | > 500
9 | Cc1noc(-c2ccc3c(-c4nc(N[C@H]5CCCNC5)ncc4C(F)(F)F)c[nH]c3n2)n1 [Compound 136, 4-[6-(3-methyl-1,2,4-oxadiazol-5-yl)-1H-pyrrolo[2,3-b]pyridin-3-yl]-N-[(3S)-3-piperidyl]-5-(trifluoromethyl)pyrimidin-2-amine] | < 100 | > 1000 | < 100 | < 100 | > 500 | < 30 | > 500 | > 500
10 | CC1(C)CNC[C@@H](Nc2ncc(C(F)(F)F)c(-c3c[nH]c4nc(-c5nccs5)ccc34)n2)C1 [Compound 137, N-[(3S)-5,5-dimethyl-3-piperidyl]-4-(6-thiazol-2-yl-1H-pyrrolo[2,3-b]pyridin-3-yl)-5-(trifluoromethyl)pyrimidin-2-amine] | < 100 | < 100 | < 100 | < 100 | > 500 | < 30 | > 500 | > 500
